Assay results from US20230355597A1, “COMPOUNDS, COMPOSITIONS, AND METHODS FOR THE TREATMENT AND PREVENTION OF AVIAN PATHOGENIC E. COLI (APEC)” (OHIO STATE INNOVATION FOUNDATION, priority 2018, published 2023).

Tested on: APEC O78
Assay: Loss of 260/280 nm absorbing materials assay
Format: cell-based, avian pathogenic Escherichia coli (APEC)
Details: 2X MBC, 1 h, *P<0.05 vs DMSO

O=C(O)CN(CCN(CC(=O)O)CC(=O)O)CC(=O)O [EDTA, reference compound]
Absorbance 260 (260 nm absorbing material in supernatant): 4.00*
Absorbance 280 (280 nm absorbing material in supernatant): 2.60
